Measured values: patent publication US10071244B2, “Thoracoscopic electroporation device with a suction head and with needle electrodes” (UNIVERSITY COLLEGE CORK—NATIONAL UNIVERSITY OF IRELAND, CORK, priority 2012, dated 2018)

System: tumour tissue
Experiment: Evans Blue perfusion test in tumour-bearing mouse
Format: in vivo
Excerpt: FIG. 53 illustrates the result of an Evans Blue perfusion test;
Perfusion • A. One of the physiological impediments reducing the efficacy of chemotherapy relates to the poor diffusion of the drug from the capillaries through to the interstitial spaces surrounding the tumour cells. Poor lymphatic drainage and an irregular vasculature leads to the tumour interstitial pressure increasing with time as the tumour grows. This positive pressure is the opposite of normal tissue where a slightly negative interstitial pressure allows for convection of molecules across the capillaries. See FIG. 51 in which the X-axis represents the tumour volume in cm^3, Y-axis represents tumour interstitial pressure readings in mmHg. Each dot represents one TIP reading at a given tumour volume. Linear line represents correlation coefficients between tumour volume and TIP. • B. The positive pressure within the tumour tissue can be immediately negated through the placement of a vacuum directly on the tumour tissue. […] This facilitates better drug perfusion throughout the tumour interstitial spaces (between the cells) by allowing convection of macromolecules from the capilliaries to the […]. • C. This correction allows for perfusion of the chemotherapy from the capillaries into the tumour tissue. […]

Structure (SMILES): Cc1cc(-c2ccc(/N=N/c3ccc4c(S(=O)(=O)O)cc(S(=O)(=O)O)c(N)c4c3O)c(C)c2)ccc1/N=N/c1ccc2c(S(=O)(=O)O)cc(S(=O)(=O)O)c(N)c2c1O [Evans blue]
- dye perfusion into tumour, no vacuum (15 mins after injection into blood supply, tumour excised and dissected): only the periphery has absorbed the dye
- dye perfusion into tumour, with vacuum (vacuum applied to the tumour for 1 minute at 200 mmHg of negative pressure): Deep permeation of the dye is achieved throughout the tumour tissue
